{"source": "patent US7235577B1", "about": "(priority 2000, dated 2007)", "key": {"[1]": {"target": "T1, mKv3.1 (Mus musculus, UniProt P15388)", "T1 construct": "expressed in transfected cells; host or cells: L929", "experiment": "Selectivity patch clamp, L929 cells expressing mKv3.1", "assay_type": "cell-based", "description": "(§1) L929 cells stably expressing mKv1.1, rKv1.2, mKv1.3, and mKv3.1 and MEL cells stably expressing hKv1.5 have been previously described (Grissmer 1994, Mol. Pharmacol. 45: 1227). hKv1.4 and rKv4.2 were stably expressed in LTK (HK1–7). Channel expression was induced 8–12 h before the electrophysiological experiments by 4 μM dexamethasone (Sigma). HEK-293 cells stably expressing the skeletal muscle sodium channel hSkM1 (SCN4A) were generated in the laboratory of Dr. F. Lehmann-Horn. HEK-293 cells stably expressing hSloα were obtained from Dr. Andrew Tinker (Center for Clinical Pharmacology, University College London). L929, MEL, LTK and HEK cells were maintained in DMEM containing 10% heat-inactivated fetal calf serum (Summit Biotechnology, Fort Collins, Colo.) and 250 μg/ml G418 (Life Technologies, Inc.). Rat basophilic leukemia (RBL) cells were maintained in Eagle's minimum essential medium with 2 mM L-glutamine and 10% fetal calf serum. CHO cell were maintained in F12K media (ATCC). Human leukemic Jurkat E6–1 cells were cultured in RPMI 1640 supplemented with 10% fetal calf serum and 1 mM L-glutamine. T84 cells were maintained in a 1:1 mixture of Ham's F12 medium and DMEM with 2.5 mM L-glutamine and 10% fetal calf serum.\n(§2) Recordings from the Jurkat SKCa channel were made in K^+ aspartate Ringer (Na^+ was replaced by K^+) with the same internal pipette solution. […]"}, "[2]": {"target": "T2, HSKM1 (Homo sapiens, UniProt P35499)", "T2 construct": "expressed in transfected cells; host or cells: HEK-293", "T2 sequence (P35499 whole entry)": "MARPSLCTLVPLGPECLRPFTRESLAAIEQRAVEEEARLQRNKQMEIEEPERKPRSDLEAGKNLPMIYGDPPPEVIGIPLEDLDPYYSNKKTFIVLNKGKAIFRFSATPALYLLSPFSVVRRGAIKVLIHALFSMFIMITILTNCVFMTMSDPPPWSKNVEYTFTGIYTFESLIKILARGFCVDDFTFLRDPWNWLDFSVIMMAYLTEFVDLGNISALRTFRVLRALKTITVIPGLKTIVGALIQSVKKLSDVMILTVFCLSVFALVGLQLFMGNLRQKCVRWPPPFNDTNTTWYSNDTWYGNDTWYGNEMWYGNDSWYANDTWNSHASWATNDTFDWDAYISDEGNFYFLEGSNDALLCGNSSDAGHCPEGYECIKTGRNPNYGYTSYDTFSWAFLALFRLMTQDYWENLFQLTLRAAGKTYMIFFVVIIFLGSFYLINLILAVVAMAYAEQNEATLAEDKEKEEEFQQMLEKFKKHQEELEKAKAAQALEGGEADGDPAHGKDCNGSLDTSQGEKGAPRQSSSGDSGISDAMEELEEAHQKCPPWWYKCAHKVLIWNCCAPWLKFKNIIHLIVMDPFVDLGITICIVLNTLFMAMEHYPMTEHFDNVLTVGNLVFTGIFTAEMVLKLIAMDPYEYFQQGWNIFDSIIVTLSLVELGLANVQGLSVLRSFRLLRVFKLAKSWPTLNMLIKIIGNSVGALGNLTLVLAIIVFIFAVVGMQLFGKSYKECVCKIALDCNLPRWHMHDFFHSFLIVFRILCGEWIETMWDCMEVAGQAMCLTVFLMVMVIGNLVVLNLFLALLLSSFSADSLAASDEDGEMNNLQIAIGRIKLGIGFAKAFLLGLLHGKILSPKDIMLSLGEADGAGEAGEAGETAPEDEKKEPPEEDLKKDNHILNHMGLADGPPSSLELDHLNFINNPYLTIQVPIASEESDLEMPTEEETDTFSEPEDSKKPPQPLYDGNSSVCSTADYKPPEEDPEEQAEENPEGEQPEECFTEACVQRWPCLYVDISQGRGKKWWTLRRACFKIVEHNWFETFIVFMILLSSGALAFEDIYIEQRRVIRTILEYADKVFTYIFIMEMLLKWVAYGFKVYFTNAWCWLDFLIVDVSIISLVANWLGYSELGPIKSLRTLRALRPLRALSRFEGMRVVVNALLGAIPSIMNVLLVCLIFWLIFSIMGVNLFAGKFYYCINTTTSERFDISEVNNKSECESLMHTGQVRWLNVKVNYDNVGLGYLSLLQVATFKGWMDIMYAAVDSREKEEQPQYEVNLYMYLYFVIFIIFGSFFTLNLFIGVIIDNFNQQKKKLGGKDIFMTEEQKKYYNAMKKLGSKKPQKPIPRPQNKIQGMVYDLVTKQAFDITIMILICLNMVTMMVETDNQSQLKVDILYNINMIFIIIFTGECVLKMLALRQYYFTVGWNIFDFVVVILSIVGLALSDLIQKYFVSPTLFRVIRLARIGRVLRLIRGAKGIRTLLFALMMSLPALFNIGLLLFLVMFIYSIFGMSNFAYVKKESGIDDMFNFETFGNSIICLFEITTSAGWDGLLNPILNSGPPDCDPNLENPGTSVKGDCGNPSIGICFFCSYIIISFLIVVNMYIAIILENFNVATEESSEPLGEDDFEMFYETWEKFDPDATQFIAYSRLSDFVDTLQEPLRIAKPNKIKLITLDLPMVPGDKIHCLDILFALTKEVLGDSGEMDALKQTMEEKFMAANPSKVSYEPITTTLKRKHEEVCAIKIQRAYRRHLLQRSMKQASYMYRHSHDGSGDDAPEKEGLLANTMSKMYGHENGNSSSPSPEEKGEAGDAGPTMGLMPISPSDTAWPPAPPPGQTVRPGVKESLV", "experiment": "Selectivity patch clamp, HEK-293 cells expressing skeletal muscle sodium channel hSkM1 (SCN4A)", "assay_type": "cell-based", "description": "as §1, §2"}, "[3]": {"experiment": "logP"}}}
{"smiles": "Clc1ccccc1C(c1ccccc1)(c1ccccc1)n1cccn1", "note": "[Compound T34, 1-[(2-Chlorophenyl)diphenylmethyl]-1H-pyrazole]", "values": [{"measurement": "Kd", "setting": "[1]", "result": "30 ± 5", "unit": "µM"}, {"measurement": "Kd", "setting": "[2]", "result": "8 ± 0.6", "unit": "µM"}, {"measurement": "logP", "setting": "[3]", "result": 4}]}
